Test results published in patent publication US9062071B2, “Substituted piperidines as HDM2 inhibitors” (Merck Sharp & Dohme Corp, priority 2011, dated 2015).

Target: HDM2 protein (Homo sapiens, UniProt Q00987)
Assay: fluorescence polarization screening assay (FP IC50)
Assay type: binding
Conditions: class symbols
Method: The compounds were evaluated to determine activity at the HDM2 protein by known methods such as the fluorescence polarization screening assay that measures the inhibitory concentration that achieves 50% of maximal activity (FP IC50) and the dissociation constant for inhibitor binding (FP Ki). [Zhang et al., J. Analytical Biochemistry 331: 138-146 (2004)].

Sequence of HDM2 protein (Q00987 whole entry): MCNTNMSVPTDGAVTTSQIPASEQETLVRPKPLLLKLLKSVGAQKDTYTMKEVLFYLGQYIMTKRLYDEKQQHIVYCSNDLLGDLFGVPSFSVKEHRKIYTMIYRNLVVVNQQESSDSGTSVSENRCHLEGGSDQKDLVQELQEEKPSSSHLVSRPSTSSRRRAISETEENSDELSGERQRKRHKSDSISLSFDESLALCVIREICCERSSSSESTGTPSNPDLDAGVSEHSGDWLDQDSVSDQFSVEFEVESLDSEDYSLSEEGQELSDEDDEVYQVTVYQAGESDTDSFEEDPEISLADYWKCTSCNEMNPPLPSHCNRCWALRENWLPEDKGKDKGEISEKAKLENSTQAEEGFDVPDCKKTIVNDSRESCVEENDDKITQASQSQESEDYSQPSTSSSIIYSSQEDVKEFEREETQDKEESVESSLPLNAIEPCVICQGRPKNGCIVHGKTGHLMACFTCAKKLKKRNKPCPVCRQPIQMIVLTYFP

Row | IC50 [nM] | Compound
1 | 1 to 100 | CCC[C@H]1N(C(=O)c2ncccc2C(F)(F)F)CCC[C@@]1(Oc1csc(C(F)(F)F)c1)C(=O)N1CCc2cc(F)ccc2C1C(=O)N1CCN(CCO)CC1 (stereo partly drawn) [Compound A93, 2-{4-[(6-fluoro-2-{[(2R,3S)-2-propyl-1-{[3-(trifluoromethyl)pyridin-2-yl]carbonyl}-3-{[5-(trifluoromethyl)thiophen-3-yl]oxy}piperidin-3-yl]carbonyl}-1,2,3,4-tetrahydroisoquinolin-1-yl)carbonyl]piperazin-1-yl}ethanol]
2 | 101 to 20000 | CCC[C@H]1N(C(=O)c2ncccc2C(F)(F)F)CCC[C@@]1(Oc1csc(C(F)(F)F)c1)C(=O)N1CCc2cc(F)ccc2C1C(=O)N1CCN(CCO)CC1 (stereo partly drawn) [Compound A94, 2-{4-[(6-fluoro-2-{[(2R,3S)-2-propyl-1-{[3-(trifluoromethyl)pyridin-2-yl]carbonyl}-3-{[5-(trifluoromethyl)thiophen-3-yl]oxy}piperidin-3-yl]carbonyl}-1,2,3,4-tetrahydroisoquinolin-1-yl)carbonyl]piperazin-1-yl}ethanol]
3 | 1 to 100 | NC(=O)C1c2ccc(Cl)cc2CCN1C(=O)[C@]1(Oc2csc(C(F)(F)F)c2)CCCN(C(=O)c2ncccc2C(F)(F)F)[C@@H]1CC(=O)O (stereo partly drawn) [Compound A95, [(2R,3S)-3-[(1-carbamoyl-6-chloro-3,4-dihydroisoquinolin-2(1H)-yl)carbonyl]-1-{[3-(trifluoromethyl)pyridin-2-yl]carbonyl}-3-{[5-(trifluoromethyl)thiophen-3-yl]oxy}piperidin-2-yl]acetic acid]
4 | 1 to 100 | CCC[C@H]1N(C(=O)c2ncccc2C(F)(F)F)CCC[C@@]1(Oc1csc(C(F)(F)F)c1)C(=O)N1CCc2cc(Cl)ccc2C1C1CCC(C(=O)O)C1 (stereo partly drawn) [Compound A96, 3-(6-chloro-2-{[(2R,3S)-2-propyl-1-{[3-(trifluoromethyl)pyridin-2-yl]carbonyl}-3-{[5-(trifluoromethyl)thiophen-3-yl]oxy}piperidin-3-yl]carbonyl}-1,2,3,4-tetrahydroisoquinolin-1-yl)cyclopentanecarboxylic acid]
5 | 1 to 100 | NC(=O)C1c2ccc(Cl)cc2CCN1C(=O)[C@]1(Oc2csc(C(F)(F)F)c2)CCCN(C(=O)c2ncccc2C(F)(F)F)[C@@H]1CC(=O)O (stereo partly drawn) [Compound A97, [(2R,3S)-3-[(1-carbamoyl-6-chloro-3,4-dihydroisoquinolin-2(1H)-yl)carbonyl]-1-{[3-(trifluoromethyl)pyridin-2-yl]carbonyl}-3-{[5-(trifluoromethyl)thiophen-3-yl]oxy}piperidin-2-yl]acetic acid]
6 | 1 to 100 | CCC[C@H]1N(C(=O)c2ncccc2C(F)(F)F)CCC[C@@]1(Oc1csc(C(F)(F)F)c1)C(=O)N1CCc2cc(Cl)ccc2[C@H]1CCC(=O)N1CCC(C(=O)O)CC1 [Compound A98, 1-{3-[(1R)-6-chloro-2-{[(2R,3S)-2-propyl-1-{[3-(trifluoromethyl)pyridin-2-yl]carbonyl}-3-{[5-(trifluoromethyl)thiophen-3-yl]oxy}piperidin-3-yl]carbonyl}-1,2,3,4-tetrahydroisoquinolin-1-yl]propanoyl}piperidine-4-carboxylic acid]
7 | 1 to 100 | CCC[C@H]1N(C(=O)c2ncccc2C(F)(F)F)CCC[C@@]1(Oc1csc(C(F)(F)F)c1)C(=O)N1CCc2cc(Cl)ccc2[C@@H]1CCC(=O)N1CCC(C(=O)O)CC1 [Compound A99, 1-{3-[(1S)-6-chloro-2-{[(2R,3S)-2-propyl-1-{[3-(trifluoromethyl)pyridin-2-yl]carbonyl}-3-{[5-(trifluoromethyl)thiophen-3-yl]oxy}piperidin-3-yl]carbonyl}-1,2,3,4-tetrahydroisoquinolin-1-yl]propanoyl}piperidine-4-carboxylic acid]
8 | 1 to 100 | CCC[C@H]1N(C(=O)c2ncccc2C(F)(F)F)CCC[C@@]1(Oc1csc(C(F)(F)F)c1)C(=O)N1CCc2cc(Cl)ccc2C1C(=O)O (stereo partly drawn) [Compound A100, 6-chloro-2-{[(2R,3S)-2-propyl-1-{[3-(trifluoromethyl)pyridin-2-yl]carbonyl}-3-{[5-(trifluoromethyl)thiophen-3-yl]oxy}piperidin-3-yl]carbonyl}-1,2,3,4-tetrahydroisoquinoline-1-carboxylic acid]
